# In patent publication US8278355B2, “Isovaline for treatment of pain” (Therexcell Pharma Inc., priority 2006, dated 2012):
# Experiments:
# [1] = tested on: strychnine-induced allodynia; type: in vivo, mouse; conditions: for effect on hyperalgesia or allodynia (vocalization, flinching, scratching): 4 millimolar with strychnine 200 micromolar in 5 microliters aCSF, p<0.01; for effect on hyperalgesia or allodynia (vocalization, flinching, scratching) / behavior of mice treated with compound and strychnine / side effects in treated animals: cisterna magna; for behavior of mice treated with compound and strychnine: 4 millimolar with strychnine 200 micromolar, compared with aCSF control; for side effects in treated animals: 4 millimolar; for analgesia against trigeminal hyperalgesia or allodynia compared with carbamazepine / analgesia against trigeminal hyperalgesia or allodynia compared with morphine: overall summary
# Procedure: Strychnine when administered alone to the intact rodent mimics the allodynia of chronic pain resulting from damage to inhibitory amino acid functions in the central nervous system.
# In the present example, injections into the cisterna magna of the mouse were performed as described by Reijneveld, Taphoorn, and Voerst (Journal of Neurooncology 42: 137-142, 1999). Each series of experiments consisted of 6 to 9 pairs of mice. […] In each session, two mice were injected with the strychnine solution within one minute of each other. […] A continuous video recording was made of all responses.
# [2] = tested on: pain of formalin injection in the mouse foot; assay: Formalin hindpaw licking test, lumbar intrathecal pre-treatment; type: in vivo, mice; conditions: for cumulative paw licking / licking, early phase (reflecting acute pain) / licking, late phase (reflecting chronic pain): 250 micromolar in 5 microliters, lumbar intrathecal; for cumulative paw licking: 5 minutes before formalin, 40 min, p-value<0.001; for licking, early phase (reflecting acute pain) / licking, late phase (reflecting chronic pain): FIG. 4; for activity against peripherally induced pain, administered to the lumbar cord: overall summary
# Procedure: The effects of compound (Ib) and (Ic) were determined in the acute and chronic peripheral pain model according to Kolesnikov, Cristea, Oksman, Torosjan, and Wilson (Brain Research 17: 217-223, 2004). Use of this model involves pre-treatment with the test compound and injection of formalin (5% in 20 microliters) into the right hindpaw of mice. Groups of mice (n=10) were injected intrathecally into the lumbar segment with compound (Ib) or (Ic) at 250 micromolar in 5 microliters, at 5 minutes prior to subcutaneous formalin injection into the right hindpaw. The mice were monitored for 40 min for licking activity and assessed according to the method of Abbott, Franklin, and Westbrook (Pain 60: 91-102, 1995).
# [3] = tested on: pain of formalin injection in the mouse foot; assay: Formalin hindpaw licking test, intravenous pre-treatment; type: in vivo, mice; conditions: for analgesia in peripherally induced pain, intravenous administration: overall summary
# Procedure: Groups of mice (n=10) were injected intravenously with a dose of 500 mg/kg of compound (Ia) at 10 minutes prior to subcutaneous formalin injection into the right hindpaw. After the injection of formalin (5% in 20 microliters), the animals were monitored for 40 min for licking activity.
# [4] = Rotarod test (ataxia, central toxicity) after intravenous administration; conditions: for rotarod performance versus control saline and pre- versus post-injection: 500 mg/kg, 3 ml/kg, tail vein, 10 mice per group, ANOVA p<0.05
# Procedure: Changes in central nervous system behavior viewed as ataxia were measured using the rotarod procedure in mice, described by Vaupel, McConn, and Cone (Journal of Pharmacology & Experimental Therapeutics, 230: 20-27, 1984). A 27-mm diameter rod was rotated at 5 rpm. At least 1 day before testing, mice were trained in three sessions on the rod for two consecutive 5 minute trials, separated by a 5 minute rest period. During the tests, each trial on the rotarod was limited to a 120 seconds maximum. For all experiments two control trials obtained 6 minutes apart preceded the injection (500 mg/kg, 3 ml/kg) of compound (Ib) or (Ic) into the tail vein. Each mouse was then given 2 trials, with 6 minutes between trials after the injection.
# The data were analyzed as means±SEM of 10 mice in each group, and examined by analysis of variance (ANOVA) for multiple comparisons with the single control group. Level of significance was set to 5% (p<0.05).
# [5] = Overall behavioral observation of the animals studied; type: in vivo; conditions: all animals studied
# [6] = tested on: strychnine-induced allodynia; conditions: lumbar intrathecal
# Procedure: Injections into the 6th lumbar intrathecal space were performed according to the method of Hylden and Wilcox (Brain Research 217: 212-215, 1981). The total volume used for injection in all experiments was 5 microliters of artificial cerebrospinal fluid (aCSF). In mice anesthetized with isoflurane, strychnine at 200 micromolar in 5 microliters of aCSF was injected either alone or in combination with compound (Ia) at concentrations of 4 to 8 millimolar in a total volume of 5 microliters of aCSF. In each experiment 2 mice were injected with 5 microliters of solution within one minute of each other. One of the mice received strychnine 200 micromolar in aCSF (control) and the other received the same volume with strychnine 200 micromolar in combination with the test compound (Ia). The mice were placed in a container designed such that they were unaware of the other, but could be simultaneously observed. The presence of flinching, scratching or vocalization in response to touching with a fine hair was noted every two minutes. Responses limited to lumbar segments 5 and 6, as well as originating from more caudal nerve distribution were considered as positive. A continuous video recording was made of all responses. Each experiment consisted of 6 to 9 pairs of mice. The blinded observer decided which animal had the greatest response to stimuli. A Wilcoxon signed rank test was used to determine the statistical significance of the results.
Compound,"effect on hyperalgesia or allodynia (vocalization, flinching, scratching) ([1]; FIG. 1)",behavior of mice treated with compound and strychnine [1],side effects in treated animals [1],analgesia against trigeminal hyperalgesia or allodynia compared with carbamazepine [1],analgesia against trigeminal hyperalgesia or allodynia compared with morphine [1],cumulative paw licking [2],"licking, early phase (reflecting acute pain) [2]","licking, late phase (reflecting chronic pain) [2]","activity against peripherally induced pain, administered to the lumbar cord [2]","analgesia in peripherally induced pain, intravenous administration [3]",rotarod performance versus control saline and pre- versus post-injection [4],behavioral toxicity [5],also measured
"NC(=O)N1c2ccccc2C2OC2c2ccccc21 (centres unmarked) [carbamazepine epoxide, reference compound]",–,–,–,–,–,–,–,–,–,–,–,–,"analgesic effect ([1]; 30 mg/kg body weight, FIG. 1): an analgesic effect"
"CCC(C)(N)C(=O)O (single isomer, unassigned) [(Ic), Isovaline (2-Amino-2-methylbutanoic acid)]",The same effects were obtained,identical to the mice which received the aCSF control injection without strychnine,"no side effects such as sedation, movement disorders, or abnormal behavior",surpassed the analgesia produced by carbamazepine,"to a much greater degree than the tested reference opioid, morphine",significantly reduced,significantly reduced,significantly reduced,active against acute and chronic pain induced peripherally,effective in producing analgesia,did not show significant differences,no observed behavioral toxicity,–
"CN1CC[C@]23c4c5ccc(O)c4O[C@H]2[C@@H](O)C=C[C@H]3[C@H]1C5 [morphine, reference compound]",–,–,–,–,–,–,–,–,–,–,–,–,"responses to intracisternal injections (analgesia) ([1]; 1 mg/kg body weight, intracisternal, FIG. 1): poor or absent"
"CCC(C)(N)C(=O)O (centres unmarked) [Formula (I), Isovaline (2-Amino-2-methylbutanoic acid)]",–,–,–,–,–,–,–,–,–,–,–,–,"blood-brain-barrier crossing ([3]; inferred from analgesia after intravenous administration): crosses the blood-brain-barrier; central nervous system toxicity, such as ataxia or other disturbances in conscious behavior ([4]; mouse, in vivo): no evidence"
"CCC(C)(N)C(=O)O (racemic) [(Ia), Isovaline (2-Amino-2-methylbutanoic acid)]",a great reduction and a total blockade of hyperalgesia or allodynia,identical to the mice which received the aCSF control injection without strychnine,"no side effects such as sedation, movement disorders, or abnormal behavior",surpassed the analgesia produced by carbamazepine,"to a much greater degree than the tested reference opioid, morphine",–,–,–,active against acute and chronic pain induced peripherally,–,–,no observed behavioral toxicity,"pairs of mice in which blinded observer identified presence of compound ([6]; 8 millimolar plus strychnine 200 micromolar, 5 microliter, FIG. 3, p<0.01): 6 out of 6; effect of sole administration (without strychnine) ([6]; 25 microliters at 10 millimolar, no strychnine): did not produce a significant result; duration of effect [6]: at least 60 minutes; sedation, movement disorders, abnormal behaviour in treated animals ([6]; 8 millimolar): no sedation, movement disorders, or abnormal behaviour; behavior of treated mice without concomitant strychnine injection ([6]; no strychnine, compared with aCSF control): identical to those mice that received aCSF control injection; licking, late phase (reflecting chronic pain) ([3]; 500 mg/kg intravenously, 10 minutes before formalin, 10 to 40 minutes, FIG. 5, p<0.001): significantly reduced"
"CCC(C)(N)C(=O)O (single isomer, unassigned) [(Ib), Isovaline (2-Amino-2-methylbutanoic acid)]",The same effects were obtained,identical to the mice which received the aCSF control injection without strychnine,"no side effects such as sedation, movement disorders, or abnormal behavior",surpassed the analgesia produced by carbamazepine,"to a much greater degree than the tested reference opioid, morphine",significantly reduced,significantly reduced,significantly reduced,active against acute and chronic pain induced peripherally,effective in producing analgesia,did not show significant differences,no observed behavioral toxicity,–
